Values after ≈ are worked out from the molar mass of the structure shown.
Experiments:
[1] = target: T1, recombinant human CD73 (hCD73) (Homo sapiens, UniProt P21589); test: CD73 activity assay on recombinant human CD73; assay type: biochemical; conditions: ΔGexp = RT ln Ki
T1 sequence (P21589 27-574): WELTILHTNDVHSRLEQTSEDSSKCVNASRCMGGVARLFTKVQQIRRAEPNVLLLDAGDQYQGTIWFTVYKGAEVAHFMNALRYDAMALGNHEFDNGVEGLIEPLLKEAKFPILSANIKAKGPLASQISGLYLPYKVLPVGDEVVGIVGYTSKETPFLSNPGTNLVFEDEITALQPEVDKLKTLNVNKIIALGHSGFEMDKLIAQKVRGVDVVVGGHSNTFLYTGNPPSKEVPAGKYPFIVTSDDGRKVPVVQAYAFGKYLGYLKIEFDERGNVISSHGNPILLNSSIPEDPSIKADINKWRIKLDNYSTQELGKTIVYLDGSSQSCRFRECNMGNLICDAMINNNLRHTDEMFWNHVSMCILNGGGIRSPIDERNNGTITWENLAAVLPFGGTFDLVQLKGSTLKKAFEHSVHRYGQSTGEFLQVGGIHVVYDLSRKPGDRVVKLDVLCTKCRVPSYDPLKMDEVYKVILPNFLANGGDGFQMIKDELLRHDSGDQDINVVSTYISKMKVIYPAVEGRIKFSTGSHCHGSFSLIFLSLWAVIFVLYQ

[2] = Plasma protein binding, equilibrium dialysis, human plasma; assay type: in vitro ADME; conditions: undiluted plasma
[3] = Plasma protein binding, mouse plasma; assay type: in vitro ADME; conditions: mouse, plasma, mouse plasma protein binding; read-out: PPB (m) (converted)
[4] = Kinetic solubility in PBS; assay type: physicochemical; conditions: phosphate-buffered saline, pH 7.4, aqueous buffer, kinetic from dmso stock
In short: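 DMSO stocks diluted into PBS pH 7.4 to 100 μM and shaken 2 h at room temperature in duplicate, then filtered by centrifugation. Filtrates diluted 1:99 in 50% acetonitrile. Quantified by Echo-MS against calibration standards spanning 0.05–4 μM.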

[5] = Microsomal stability assay, human liver microsomes; assay type: in vitro ADME; conditions: for Mics (hu) comp remaining 60 min: 10 μM; for microsomal CLint at 10 µM: pooled liver microsomes, pH 7.4, read-out: Mics (hu) CLint
[6] = Microsomal stability assay, mouse liver microsomes; assay type: in vitro ADME; conditions: for Mics (m) comp remaining 60 min: 10 μM; for microsomal CLint at 10 µM: pooled liver microsomes, pH 7.4, read-out: Mics (m) CLint
CCRF-CEM = test: In vitro cytotoxic activity; assay type: cell-based; conditions: Homo sapiens
Experimental: (§1) All the compounds were also tested for their in vitro cytotoxic activity on a small panel of four cancer cell lines (CCRF-CEM, HepG2, HeLa S3, HL-60) and nonmalignant human dermal fibroblasts (NHDF).

HL-60 = test: In vitro cytotoxic activity; assay type: cell-based; conditions: Homo sapiens
Experimental: as §1

HeLa S3 = test: In vitro cytotoxic activity; assay type: cell-based; conditions: Homo sapiens
Experimental: as §1

HepG2 = test: In vitro cytotoxic activity; assay type: cell-based; conditions: Homo sapiens
Experimental: as §1

[7] = system: nonmalignant human dermal fibroblasts (NHDF); test: In vitro cytotoxic activity; assay type: cell-based
Experimental: as §1

in vitro [8] = conditions: human, plasma
in vitro [9] = conditions: mouse, plasma
[10] = human plasma protein binding, read-out: PPB (hu) (converted)

Row | SMILES | dG_exp, experimental binding free energy [1] | fraction unbound at 4 h, 100 µM [2, 10] | fraction unbound at 4 h, 100 µM [3] | solubility at 2 h [4] [µM] | Mics (hu) comp remaining 60 min [5] [%] | microsomal CLint at 10 µM [5] [µL/min/mg] | Mics (m) comp remaining 60 min [6] [%] | microsomal CLint at 10 µM [6] [µL/min/mg] | IC50 (CCRF-CEM) [µM] | IC50 (HL-60) [µM] | IC50 (HeLa S3) [µM] | IC50 (HepG2) [µM] | IC50 [7] [µM] | half-life at 10 µM (in vitro [8]) [h] | half-life at 10 µM (in vitro [9]) [h] | fraction unbound at 4 h, 100 µM ([2]; Tables 1 and 3, human plasma as printed in footnote, read-out: fup, fraction unbound in human plasma)
1 | Cc1nc(-c2ccco2)c2ccn([C@@H]3O[C@H](COP(=O)(O)CP(=O)(O)O)[C@@H](O)[C@H]3O)c2n1 [18E.1] | –13.2 kcal/mol | 0.069 | 0.816 | 89 (≈ 43.5 µg/mL) | 100 | < 1 | 96 | 1 | > 10 | > 10 | > 10 | > 10 | > 10 | > 2 | > 2 | –
2 | CNc1nc(-c2ccc3ccccc3c2)c2ccn([C@@H]3O[C@H](COP(=O)(O)CP(=O)(O)O)[C@@H](O)[C@H]3O)c2n1 [22G.7, [(5-{[2-(N-Methylamino)-4-(naphthalen-2-yl)-7H-pyrrolo[2,3-d]pyrimidin-7-yl]-β-D-ribofuranosyl}oxy)phosphonomethyl]phosphonic Acid] | –12.7 kcal/mol | ≤ 0.01 | 0.112 | 84 (≈ 47.4 µg/mL) | 106 | < 1 | – | 3 | > 10 | 8.1 | > 10 | > 10 | > 10 | > 2 | > 2 | 0.11
3 | Nc1nc(-c2cc3ccccc3o2)c2ccn([C@@H]3O[C@H](COP(=O)(O)CP(=O)(O)O)[C@@H](O)[C@H]3O)c2n1 [11C.8] | –13.9 kcal/mol | 0.058 | 0.391 | 87 (≈ 47 µg/mL) | 100 | < 1 | 97 | 2 | > 10 | > 10 | > 10 | > 10 | > 10 | > 2 | > 2 | –
4 | O=P(O)(O)CP(=O)(O)OC[C@H]1O[C@@H](n2ccc3c(-c4ccc5cnccc5c4)ncnc32)[C@H](O)[C@@H]1O [4A.21] | –13.1 kcal/mol | 0.054 | 0.737 | > 100 | 95 | 3 | 79 | 8 | > 10 | 5.9 | > 10 | > 10 | > 10 | > 2 | > 2 | –
5 | O=P(O)(O)CP(=O)(O)OC[C@H]1O[C@@H](n2ccc3c(-c4ccco4)nc(F)nc32)[C@H](O)[C@@H]1O [14D.1, [(5-{[2-Fluoro-4-(furan-2-yl)-7H-pyrrolo[2,3-d]pyrimidin-7-yl]-β-D-ribofuranosyl}oxy)phosphonomethyl]phosphonic Acid] | –13.4 kcal/mol | 0.045 | 0.664 | 80 (≈ 39.5 µg/mL) | 103 | < 1 | 96 | 1 | > 10 | > 10 | > 10 | > 10 | > 10 | > 2 | > 2 | –
6 | O=P(O)(O)CP(=O)(O)OC[C@H]1O[C@@H](n2ccc3c(-c4ccc5ncccc5c4)ncnc32)[C@H](O)[C@@H]1O [4A.19] | –12.7 kcal/mol | 0.048 | 0.685 | 85 (≈ 45.6 µg/mL) | 94 | < 1 | 105 | < 1 | > 10 | 3.1 | > 10 | > 10 | > 10 | > 2 | > 2 | –
7 | COc1ccc2cc(-c3nc(Cl)nc4c3ccn4[C@@H]3O[C@H](COP(=O)(O)CP(=O)(O)O)[C@@H](O)[C@H]3O)ccc2c1 [7B.35] | –15.4 kcal/mol | ≤ 0.01 | 0.088 | 84 (≈ 50.4 µg/mL) | 106 | < 2 | 103 | < 2 | > 10 | > 10 | > 10 | > 10 | > 10 | > 2 | > 2 | –
8 | Nc1ccc(-c2nc(Cl)nc3c2ccn3[C@@H]2O[C@H](COP(=O)(O)CP(=O)(O)O)[C@@H](O)[C@H]2O)c2ccccc12 [7B.33] | –14.1 kcal/mol | ≤ 0.01 | 0.374 | > 100 | 109 | < 2 | – | < 2 | 9.6 | 9.1 | 8.7 | 7.9 | 8.8 | > 2 | > 2 | –
9 | CC1(C)Cc2cc(-c3nc(Cl)nc4c3ccn4[C@@H]3O[C@H](COP(=O)(O)CP(=O)(O)O)[C@@H](O)[C@H]3O)ccc2O1 [7B.30] | –15.6 kcal/mol | ≤ 0.01 | 0.229 | 86 (≈ 50.7 µg/mL) | 102 | < 1 | 88 | 6 | > 10 | > 10 | > 10 | > 10 | > 10 | > 2 | > 2 | –
10 | O=P(O)(O)CP(=O)(O)OC[C@H]1O[C@@H](n2cnc3c(-c4cccc5c4CCCC5)ncnc32)[C@H](O)[C@@H]1O [31A.12] | –11.8 kcal/mol | 0.084 | 0.509 | 80 (≈ 43.2 µg/mL) | 102 | < 1 | 88 | 6 | > 10 | > 10 | > 10 | > 10 | > 10 | > 2 | > 2 | –
11 | O=P(O)(O)CP(=O)(O)OC[C@H]1O[C@@H](n2ccc3c(-c4ccc5ccccc5c4)nc(F)nc32)[C@H](O)[C@@H]1O [14D.7] | –14.2 kcal/mol | 0.024 | 0.183 | 85 (≈ 47 µg/mL) | 112 | < 1 | 105 | < 1 | > 10 | > 10 | > 10 | > 10 | > 10 | > 2 | > 2 | –

Source: PMC12797170, “Potent Competitive Inhibitors of Ecto-5′-nucleotidase (CD73) based on 6‑(Het)aryl-7-deazapurine Ribonucleoside 5′‑O‑Bisphosphonates” (ACS Pharmacology & Translational Science, 2025)
